From patent US20240122975A1, “IN VITRO METHODS AND COMPOSITIONS FOR ENHANCING THE ACTIVATION OF DENDRITIC CELLS AND T CELLS, AND FOR INDUCING A TH-1 IMMUNE RESPONSE” (Northwest Biotherapeutics, Inc., priority 2019, published 2024)

Tested on: Immature cryopreserved C57BL/6 and BALB/c DCs
Assay: Luminex xMAP cytokine production by cryopreserved murine immature DCs primed with TLR agonist then oxPAPC or PGPC (Example 5)
Format: cell-based, C57BL/6 and BALB/c mice
Settings: TLR agonist stimulated murine DCs; increasing concentrations of lipid (1-90 μg/ml, 48 hours)
Method: Immature cryopreserved C57BL/6 and BALB/c DCs (Cellero) were rapidly thawed in a water bath at 37° C. and the cells were resuspended in 10 times the volume of RPMI 1640/10% FBS/penicillin/streptomycin/L-glutamine/2-ME. Cells were washed twice using complete media. Thawed cells were plated in triplicate at 2×10^5 cells/well in a 96-well flat bottom TC plate. DCs were primed with 1 μg/ml of LPS (Sigma Aldrich), 1:400 dilution of hBCG (Organon Teknika/Cognate), 1 μg/ml of R848 (Sigma Aldrich), 1 μg/ml Pam2 (Invivogen), 1 μg/ml Pam3 (Invivogen), and 25 μg/ml of Poly I:C HMW (“high molecular weight”; Invivogen) for 3 hrs. Titrated concentrations of oxPAPC (Invivogen) or PGPC (Cayman)—at 1 μg/ml, 3 μg/ml, 10 μg/ml, 30 μg/ml, and 90 μg/ml—were added to appropriate samples and cultured for an additional 48 hours. Cytokine production in 100 μl of culture medium was assessed by a mouse cytokine and chemokine panel, across 26 protein targets (IFNγ; IL12 p70; IL13; IL1β; IL2; IL4; IL5; IL6; TNFα; GM-CSF; IL18; IL10; IL17A; IL22; IL23; IL27; IL9; GROα; IP10; MCP1; MCP3; MIP1α; MIP1β; MIP2; RANTES; and Eotaxin), using Luminex xMAP® multiplex technology using the manufacturer's. The xMAP system is an immunoassay system that can simultaneously detect many targets in a single sample.

In the case of `CCCCCCCCCCCCCCCC(=O)OCC(COP(=O)([O-])OCC[N+](C)(C)C)OC(=O)CCCC(=O)O` (stereo not shown) [PGPC, 1-palmitoyl-2-glutaryl phosphatidylcholine], the “production of IL-1β” value is reported as “upregulated production”.
